Data on five molecules can be found in patent US6569834B1, “Elucidation and synthesis of antineoplastic tetrapeptide w-aminoalkyl-amides” (priority 1992, dated 2003).

Common to all, as to assay type: cell-based
For assay [1], the system named is A498. Kind of assay: Human cancer cell growth inhibition, renal A498. An excerpt: (§1) Only two hundred years ago, many diseases ravaged humankind. Many of these diseases have been controlled or eradicated. In the development of the means to treat or control these diseases, work with the appropriate common experimental animals was of critical importance. With the various types of cancers, and with the HIV virus, such work is presently ongoing. The research for the treatment of various types of cancer is coordinated by the National Cancer Institute (NCI). NCI, as a government entity, has been charged with assisting anti-cancer research. To establish whether a substance has anti cancer activity, NCI has established a protocol. This protocol, which involves testing a substance against a cell line panel containing 60 human tumor cell lines, has been verified, and is accepted in scientific circles. This protocol, and the established statistical means of evaluating the results obtained therefrom have been amply described in the literature. See e.g. Principles & Practice of Oncology PPO Updates, Volume 3, Number 10, October 1989, by Michael R. Boyd, M. D., Ph.D., for a description of the protocol. The statistical analysis is explained in “Display and Analysis of Patterns of Differential Activity of Drugs Against Human Tumor Cell Lines: Development of Mean Graph and COMPARE Algorithm” Journal of the National Cancer Institute Reports Vol. 81, No. 14, Pg. 1088, July 14, 1989, by K. D. Paull et al. Both articles are incorporated herein by this reference as if fully set forth.
(§2) The extraordinary inhibition of cell growth shown by the tetrapeptide w-aminoalkylamides 6a-d against six major types of human cancer and against the murine P388 lymphocytic leukemia cell line has been presented in Table I.

Assay [2] deals with SK-MEL-3. The assay can be described thus: Human cancer cell growth inhibition, melanoma SK-MEL-3.
Source text: as §1, §2

Assay [3] deals with KM20L2. Kind of assay: Human cancer cell growth inhibition, colon KM20L2.
Source text: as §1, §2

The subject of assay [4] is NCI-460. Kind of assay: Human cancer cell growth inhibition, Lung-NSC NCI-460.
Source text: as §1, §2

Assay [5] deals with OVCAR-3. The assay can be described thus: Human cancer cell growth inhibition, ovarian OVCAR-3.
Source text: as §1, §2

The subject of assay [6] is P-388. Kind of assay: Cancer cell growth inhibition, murine P388 lymphocytic leukemia cell line. Set-up: unit not given here. To be noted: Mouse leukemia cell P-388.
Source text: as §2

For assay [7], the system named is SF-295. The assay can be described thus: Human cancer cell growth inhibition, CNS SF-295.
Source text: as §1, §2

The test system of assay [8] is human cancer cell line. Kind of assay: Human cancer cell line activity compared to dolastatin 10.

Converted amounts (≈) assume the structure as drawn.

With `CC[C@H](C)[C@@H]([C@@H](CC(=O)N1CCC[C@H]1[C@H](OC)[C@@H](C)C(=O)NCCc1ccccn1)OC)N(C)C(=O)[C@@H](NC(=O)[C@H](C(C)C)N(C)C)C(C)C` [Peptide 6a, [2S-[1[1R*(R*),2S*],2R*[1S*,2S*]]]-N,N-dimethyl-L-valyl-N-[2-methoxy-4-[2-[1-methoxy-2-methyl-3-oxo-3-[[2-(2-pyridyl)ethyl]amino]propyl]-1-pyrrolidinyl-1-(methylpropyl)-4-oxobutyl]-N-methyl-L-valineamide], the GI-50 in assay [1] is 0.00043 µg/mL; in assay [2], 0.000065 µg/mL; in assay [3], 0.000062 µg/mL; in assay [4], 0.00024 µg/mL; in assay [5], 0.000039 µg/mL; in assay [7] it was 0.00035 µg/mL. Further, the total growth inhibition concentration (TGI) in assay [1] is less than 10 ng/mL; in assay [2] it was 0.77 ng/mL (≈ 0.0011 µM); in assay [3], 1.1 ng/mL (≈ 0.00156 µM); in assay [4], 0.8 ng/mL (≈ 0.00114 µM); in assay [5] it was 0.21 ng/mL (≈ 0.000299 µM); in assay [7], less than 10 ng/mL. Moreover, the “Cancer cell growth inhibitory activity” value in assay [6] is 0.000713.
For the molecule `CC[C@H](C)[C@@H]([C@@H](CC(=O)N1CCC[C@H]1[C@H](OC)[C@@H](C)C(=O)NCCN1CCOCC1)OC)N(C)C(=O)[C@@H](NC(=O)[C@H](C(C)C)N(C)C)C(C)C` [Peptide 6b, [2S-[1[1R*(R*),2S*],2R*[1S*,2S*]]]-N,N-dimethyl-L-valyl-N-[2-methoxy-4-[2-[1-methoxy-2-methyl-3-oxo-3-[[2-(4-morpholino)ethyl]amino]propyl]-1-pyrrolidinyl-1-(methylpropyl)-4-oxobutyl]-N-methyl-L-valineamide], the GI-50 in assay [1], in assay [2], in assay [3], in assay [4], in assay [5] and in assay [7] was less than 0.0001 µg/mL in each case. Also, the concentration for total growth inhibition (TGI) in assay [1], in assay [2], in assay [3], in assay [4], in assay [5] and in assay [7] was less than 0.1 ng/mL throughout. Also, in assay [6], the “Cancer cell growth inhibitory activity” value is reported as 0.0736.
Turning to `CC[C@H](C)[C@@H]([C@@H](CC(=O)N1CCC[C@H]1[C@H](OC)[C@@H](C)C(=O)NCCN(C)C)OC)N(C)C(=O)[C@@H](NC(=O)[C@H](C(C)C)N(C)C)C(C)C` [Peptide 6c, [2S-[1[1R*(R*),2S*],2R*[1S*,2S*]]]-N,N-dimethyl-L-valyl-N-[2-methoxy-4-[2-[1-methoxy-2-methyl-3-oxo-3-[[2-dimethylamino-ethyl]amino]propyl]-1-pyrrolidinyl-1-(methylpropyl)-4-oxobutyl]-N-methyl-L-valineamide], the GI-50 is 0.0025 µg/mL in assay [1]; less than 0.01 µg/mL in assay [2]; less than 0.01 µg/mL in assay [3]; 0.0051 µg/mL in assay [4]; 0.0028 µg/mL in assay [5]; 0.0033 µg/mL in assay [7]. Besides, the total growth inhibition concentration (TGI) in assay [1] was 5.6 ng/mL (≈ 0.00837 µM); in assay [2], less than 10 ng/mL; in assay [3], less than 10 ng/mL; in assay [4], less than 10 ng/mL; in assay [5] it was 8.6 ng/mL (≈ 0.0129 µM); in assay [7] it was less than 10 ng/mL. For the same molecule, the “Cancer cell growth inhibitory activity” value in assay [6] was less than 0.1.
Turning to `CC[C@H](C)[C@@H]([C@@H](CC(=O)N1CCC[C@H]1[C@H](OC)[C@@H](C)C(=O)NCCCN(C)C)OC)N(C)C(=O)[C@@H](NC(=O)[C@H](C(C)C)N(C)C)C(C)C` [Peptide 6d, [2S-[1[1R*(R*),2S*],2R*[1S*,2S*]]]-N,N-dimethyl-L-valyl-N-[2-methoxy-4-[2-[1-methoxy-2-methyl-3-oxo-3-[[3-dimethylamino-propyl]amino]propyl]-1-pyrrolidinyl-1-(methylpropyl)-4-oxobutyl]-N-methyl-L-valineamide], the GI-50 was less than 0.01 µg/mL in assay [1]; less than 0.01 µg/mL in assay [2]; less than 0.01 µg/mL in assay [3]; 0.0072 µg/mL in assay [4]; less than 0.01 µg/mL in assay [5]; less than 0.01 µg/mL in assay [7]. Besides, the TGI in assay [1], in assay [2], in assay [3], in assay [4], in assay [5] and in assay [7] was less than 10 ng/mL in each case. Also, the “Cancer cell growth inhibitory activity” value in assay [6] came to 0.881.
Consider R-Doe-isodolastatin 10, for which the “human cancer cell line activity as compared to dolastatin 10” value in assay [8] was “did not show any significant difference”.

In general, TGI refers to the concentration at which net growth stops.
